Test results as given in patent US20090306133A1, “New Acetyl Coenzyme A Carboxylase (ACC) Inhibitors And Uses In Treatments Of Obesity And Diabetes Mellitus - 087” (ASTRAZENECA AB, priority 2007, published 2009).

What was measured:
[1] = target: Human recombinant Acetyl-CoA Carboxylase 2 (ACC2) (Homo sapiens, UniProt O00763); experiment: Assay X: ACC2 inhibition, inorganic phosphate (malachite green); format: biochemical; conditions: Assay X: 37° C., 1.5 h, 5 min pre-incubation
Method in brief: (§1)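 Human recombinant enzyme pre-incubated 5 min with compound before substrate addition; reaction run 1.5 h, then inorganic phosphate detected by malachite green absorbance at 660 nm. Ten concentrations tested in triplicate; apparent IC50 from four-parameter curve fit.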

[2] = target: Human recombinant Acetyl-CoA Carboxylase 1 (ACC1) (Homo sapiens, UniProt Q13085); experiment: Assay X: ACC1 inhibition, inorganic phosphate (malachite green); format: biochemical; conditions: Assay X: 37° C., 1.5 h, 5 min pre-incubation
Method in brief: as §1

Sequence of Human recombinant Acetyl-CoA Carboxylase 2 (ACC2) (O00763 whole entry): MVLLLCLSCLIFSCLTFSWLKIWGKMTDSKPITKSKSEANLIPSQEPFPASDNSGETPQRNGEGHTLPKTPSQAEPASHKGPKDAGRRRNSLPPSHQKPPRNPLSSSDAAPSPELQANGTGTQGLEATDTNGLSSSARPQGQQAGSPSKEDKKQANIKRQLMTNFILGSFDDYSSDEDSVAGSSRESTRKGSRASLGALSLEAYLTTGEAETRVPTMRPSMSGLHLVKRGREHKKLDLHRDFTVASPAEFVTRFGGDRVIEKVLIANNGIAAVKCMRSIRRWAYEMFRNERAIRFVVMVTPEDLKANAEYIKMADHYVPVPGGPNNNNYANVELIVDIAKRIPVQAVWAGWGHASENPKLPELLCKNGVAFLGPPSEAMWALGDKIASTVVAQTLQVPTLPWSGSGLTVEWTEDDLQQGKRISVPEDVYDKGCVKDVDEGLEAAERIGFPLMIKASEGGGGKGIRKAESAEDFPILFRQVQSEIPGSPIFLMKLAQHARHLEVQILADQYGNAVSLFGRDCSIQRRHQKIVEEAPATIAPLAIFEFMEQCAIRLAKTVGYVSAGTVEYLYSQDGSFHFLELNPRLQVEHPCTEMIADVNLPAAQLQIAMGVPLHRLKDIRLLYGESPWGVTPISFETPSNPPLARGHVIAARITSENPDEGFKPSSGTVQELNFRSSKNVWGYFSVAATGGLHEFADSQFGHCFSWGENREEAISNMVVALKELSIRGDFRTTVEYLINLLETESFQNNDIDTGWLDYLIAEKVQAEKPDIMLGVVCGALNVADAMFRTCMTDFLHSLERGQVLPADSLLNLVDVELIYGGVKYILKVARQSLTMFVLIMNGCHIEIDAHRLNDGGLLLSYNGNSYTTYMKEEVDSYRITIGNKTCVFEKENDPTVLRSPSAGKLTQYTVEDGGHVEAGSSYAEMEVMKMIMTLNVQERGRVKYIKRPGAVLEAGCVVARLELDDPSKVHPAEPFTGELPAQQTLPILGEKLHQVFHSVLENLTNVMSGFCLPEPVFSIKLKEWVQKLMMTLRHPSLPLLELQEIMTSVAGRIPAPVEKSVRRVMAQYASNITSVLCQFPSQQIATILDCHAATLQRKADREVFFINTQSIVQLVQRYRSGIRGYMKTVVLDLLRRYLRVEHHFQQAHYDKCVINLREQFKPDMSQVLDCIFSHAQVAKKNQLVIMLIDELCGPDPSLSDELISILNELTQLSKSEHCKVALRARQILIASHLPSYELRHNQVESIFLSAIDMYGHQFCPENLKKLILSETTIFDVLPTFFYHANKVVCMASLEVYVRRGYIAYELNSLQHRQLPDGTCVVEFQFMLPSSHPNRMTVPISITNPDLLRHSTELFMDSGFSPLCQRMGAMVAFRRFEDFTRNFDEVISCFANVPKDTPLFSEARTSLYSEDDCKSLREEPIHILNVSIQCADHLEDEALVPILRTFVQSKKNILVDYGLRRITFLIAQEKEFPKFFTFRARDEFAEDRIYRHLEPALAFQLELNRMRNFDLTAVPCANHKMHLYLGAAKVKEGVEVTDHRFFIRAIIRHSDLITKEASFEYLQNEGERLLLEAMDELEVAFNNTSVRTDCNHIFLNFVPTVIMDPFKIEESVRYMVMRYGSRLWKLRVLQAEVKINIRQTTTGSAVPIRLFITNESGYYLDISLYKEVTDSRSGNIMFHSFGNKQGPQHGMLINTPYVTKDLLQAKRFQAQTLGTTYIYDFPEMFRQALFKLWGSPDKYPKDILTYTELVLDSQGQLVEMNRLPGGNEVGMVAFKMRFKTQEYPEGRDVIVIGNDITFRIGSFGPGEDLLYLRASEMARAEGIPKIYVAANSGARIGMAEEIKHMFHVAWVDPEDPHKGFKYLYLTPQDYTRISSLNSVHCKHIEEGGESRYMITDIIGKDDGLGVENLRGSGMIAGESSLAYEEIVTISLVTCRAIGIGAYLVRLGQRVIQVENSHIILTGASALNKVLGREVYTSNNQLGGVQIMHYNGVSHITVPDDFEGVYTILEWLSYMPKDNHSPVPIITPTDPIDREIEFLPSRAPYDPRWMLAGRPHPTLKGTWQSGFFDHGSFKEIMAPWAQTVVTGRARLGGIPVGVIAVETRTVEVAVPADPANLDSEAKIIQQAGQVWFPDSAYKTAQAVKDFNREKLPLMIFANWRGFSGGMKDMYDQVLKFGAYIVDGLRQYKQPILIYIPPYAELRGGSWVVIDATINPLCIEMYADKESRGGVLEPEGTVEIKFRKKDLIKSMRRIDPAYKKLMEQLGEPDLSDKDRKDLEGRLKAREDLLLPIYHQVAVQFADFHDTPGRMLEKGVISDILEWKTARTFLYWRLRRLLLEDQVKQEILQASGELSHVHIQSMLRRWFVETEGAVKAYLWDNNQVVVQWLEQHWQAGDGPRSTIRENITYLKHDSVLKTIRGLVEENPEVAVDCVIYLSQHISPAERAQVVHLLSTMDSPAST

Compound | IC50 [1] [nM] | IC50 [2] [nM]
CN1CCN(c2ccc(-c3cc(C(=O)NC[C@H]4CC[C@H](CNC(=O)OCc5nccs5)CC4)c4ccccc4n3)cn2)CC1 [Example 130, 1,3-Thiazol-2-ylmethyl-[(trans-4-{[({2-[6-(4-methylpiperazin-1-yl)pyridin-3-yl]quinolin-4-yl}carbonyl)amino]methyl}cyclohexyl)methyl]carbamate] | 440 | 1950
CC(C)(C)OC(=O)NC[C@H]1CC[C@H](CNC(=O)c2cc(-c3ccc(N(CCO)CCO)nc3)nc3ccccc23)CC1 [Example 152, tert-Butyl{[trans-4-({[(2-{6-[bis(2-hydroxyethyl)amino]pyridin-3-yl}quinolin-4-yl)carbonyl]amino}-methyl)cyclohexyl]methyl}carbamate] | 170 | 480
CC(C)(C)OC(=O)NC[C@H]1CC[C@H](CNC(=O)c2cc(Oc3cccnc3)nc3ccccc23)CC1 [Example 215, tert-Butyl ({trans-4-[({[2-(pyridin-3-yloxy)quinolin-4-yl]carbonyl}amino)-methyl]cyclohexyl}methyl)carbamate] | 490 | > 20000
CN(C)CCOc1ccc(-c2cc(C(=O)NC[C@H]3CC[C@H](CNC(=O)OC4CCOCC4)CC3)c3ccccc3n2)cn1 [Example 195, Tetrahydro-2H-pyran-4-yl {[trans-4-({[(2-{6-[2-(dimethylamino)ethoxy]pyridin-3-yl}quinolin-4-yl)carbonyl]amino}methyl)cyclohexyl]methyl}carbamate] | 820 | 4900
CN1CCN(c2ccc(-c3cc(C(=O)NC[C@H]4CC[C@H](CNC(=O)OCCn5cccn5)CC4)c4ccccc4n3)cn2)CC1 [Example 129, 2-(1H-Pyrazol-1-yl)ethyl-[(trans-4-{[({2-[6-(4-methylpiperazin-1-yl)pyridin-3-yl]quinolin-4-yl}carbonyl)amino]methyl}cyclohexyl)methyl]carbamate] | 2440 | 7940
CC(C)(C)OC(=O)NC[C@H]1CC[C@H](CNC(=O)c2cc(-c3ccc(NCC(O)CO)nc3)nc3ccccc23)CC1 (relative stereo) [Example 162, tert-Butyl{[trans-4-({[(2-{6-[(2,3-dihydroxypropyl)amino]pyridin-3-yl}quinolin-4-yl)carbonyl]amino}-methyl)cyclohexyl]-methyl}carbamate] | 370 | 880
CC(C)(C)OC(=O)NC[C@H]1CC[C@H](CNC(=O)c2cc(-c3ccc(N)cc3)nc3ccccc23)CC1 [Example 218, tert-Butyl ({trans-4-[({[2-(4-aminophenyl)quinolin-4-yl]carbonyl}amino)-methyl]cyclohexyl}methyl)carbamate] | 60 | 210
O=C(NC[C@H]1CC[C@H](CNC(=O)c2cc(-c3ccc(NCCO)nc3)nc3ccccc23)CC1)O[C@H]1CCOC1 [Example 200, (3S)-Tetrahydrofuran-3-yl{[trans-4-({[(2-{6-[(2-hydroxyethyl)amino]pyridin-3-yl}quinolin-4-yl)carbonyl]amino}methyl)cyclohexyl]methyl}-carbamate] | 1200 | 4500
CN(C)CCNc1ccc(-c2cc(C(=O)NC[C@H]3CC[C@H](CNC(=O)OC4CCOCC4)CC3)c3ccccc3n2)cn1 [Example 198, Tetrahydro-2H-pyran-4-yl({trans-4-[({[2-(6-{[2-(dimethylamino)-ethyl]amino}pyridin-3-yl)quinolin-4-yl]carbonyl}amino)-methyl]cyclohexyl}-methyl)carbamate] | 380 | 1420
Cc1cnc(CNc2ccc(-c3cc(C(=O)NC[C@H]4CC[C@H](CNC(=O)OC(C)(C)C)CC4)c4ccccc4n3)cn2)cn1 [Example 159, tert-Butyl({trans-4-[({[2-(6-{[(5-methylpyrazin-2-yl)methyl]amino}pyridin-3-yl)quinolin-4-yl]carbonyl}amino)methyl]cyclohexyl}methyl)carbamate] | 280 | 500
CC(C)(C)OC(=O)NC[C@H]1CC[C@H](CNC(=O)c2cc(-c3ccc(OCCO)nc3)nc3ccccc23)CC1 [Example 174, tert-Butyl[(trans-4-{[({2-[6-(2-hydroxyethoxy)-pyridin-3-yl]-quinolin-4-yl}-carbonyl)amino]-methyl}cyclohexyl)methyl]carbamate] | 340 | 1000
CN(C)CCNc1ccc(-c2cc(C(=O)NC[C@H]3CC[C@H](CNC(=O)O[C@H]4CCOC4)CC3)c3ccccc3n2)cn1 [Example 199, (3S)-Tetrahydrofuran-3-yl({trans-4-[({[2-(6-{[2-(dimethylamino)ethyl]-amino}pyridin-3-yl)quinolin-4-yl]carbonyl}amino)-methyl]cyclohexyl}-methyl)carbamate] | 370 | 1600
CC(C)(C)OC(=O)NC[C@H]1CC[C@H](CNC(=O)c2cc(-c3ccc(NC(CO)CO)nc3)nc3ccccc23)CC1 [Example 164, tert-Butyl({trans-4-[({[2-(6-{[2-hydroxy-1-(hydroxymethyl)-ethyl]amino}pyridin-3-yl)quinolin-4-yl]-carbonyl}amino)methyl]cyclohexyl}methyl)-carbamate] | 330 | 1260
CC(C)(C)OC(=O)NC[C@H]1CC[C@H](CNC(=O)c2cc(-c3cnn(CCO)c3)nc3ccccc23)CC1 [Example 243, tert-Butyl [(trans-4-{[({2-[1-(2-hydroxyethyl)-1H-pyrazol-4-yl]quinolin-4-yl}carbonyl)amino]methyl}cyclohexyl)methyl]carbamate] | 610 | 1930

Next, values leading:

IC50 [1] [nM] | IC50 [2] [nM] | Compound
330 | 1550 | CC(C)(C)OC(=O)NC[C@H]1CC[C@H](CNC(=O)c2cc(-c3ccc(OCC(N)=O)nc3)nc3ccccc23)CC1 [Example 178, tert-Butyl[(trans-4-{[({2-[6-(2-amino-2-oxoethoxy)pyridin-3-yl]quinolin-4-yl}carbonyl)amino]-methyl}cyclohexyl)methyl]carbamate]
1610 | > 20000 | CC(C)(C)OC(=O)NC[C@H]1CC[C@H](CNC(=O)c2cc(N3CCC(OCc4ccc(F)cc4)CC3)nc3ccccc23)CC1 [Example 221, tert-Butyl {[trans-4-({[(2-{4-[(4-fluorobenzyl)oxy]piperidin-1-yl}quinolin-4-yl)carbonyl]amino}methyl)cyclohexyl]methyl}carbamate]
130 | 973 | CC(C)(C)OC(=O)NC[C@H]1CC[C@H](CNC(=O)c2cc(N3CCC(CC(O)CN4CCCC4)CC3)nc3ccccc23)CC1 (relative stereo) [Example 206, tert-butyl [(trans-4-{[({2-[4-(2-hydroxy-3-pyrrolidin-1-ylpropyl)piperidin-1-yl]quinolin-4-yl}carbonyl)amino]methyl}cyclohexyl)methyl]carbamate]
110 | 950 | CN1CCC(C2CCN(c3cc(C(=O)NC[C@H]4CC[C@H](CNC(=O)OC(C)(C)C)CC4)c4ccccc4n3)CC2)CC1 [Example 225, tert-Butyl ({trans-4-[({[2-(1′-methyl-4,4′-bipiperidin-1-yl)quinolin-4-yl]carbonyl}amino)methyl]cyclohexyl}methyl)carbamate]
100 | 440 | CN(C)CCC1CCN(c2cc(C(=O)NC[C@H]3CC[C@H](CNC(=O)OC(C)(C)C)CC3)c3ccccc3n2)CC1 [Example 193, tert-butyl {[trans-4-({[(2-{4-[2-(dimethylamino)ethyl]piperidin-1-yl}quinolin-4-yl)carbonyl]amino}methyl)cyclohexyl]methyl}carbamate]
620 | 3280 | CC(C)(C)OC(=O)NC[C@H]1CC[C@H](CNC(=O)c2cc(N3CCC(CN4CCOCC4)CC3)nc3ccccc23)CC1 [Example 213, tert-Butyl[(trans-4-{[({2-[4-(morpholin-4-ylmethyl)piperidin-1-yl]quinolin-4-yl}carbonyl)amino]methyl}cyclohexyl)methyl]-carbamate]
210 | 1520 | CC(C)(C)OC(=O)NC[C@H]1CC[C@H](CNC(=O)c2cc(N3CCC(CCNC4CCOCC4)CC3)nc3ccccc23)CC1 [Example 228, tert-Butyl{[trans-4-({[(2-{4-[2-(tetrahydro-2H-pyran-4-ylamino)ethyl]piperidin-1-yl}quinolin-4-yl)carbonyl]amino}-methyl)cyclohexyl]-methyl}carbamate]
200 | 1630 | COCCNCCC1CCN(c2cc(C(=O)NC[C@H]3CC[C@H](CNC(=O)OC(C)(C)C)CC3)c3ccccc3n2)CC1 [Example 226, tert-Butyl ({trans-4-[({[2-(4-{2-[(2-methoxyethyl)amino]ethyl}piperidin-1-yl)quinolin-4-yl]carbonyl}amino)methyl]cyclohexyl}methyl)carbamate]
170 | 1100 | CC(C)(C)OC(=O)NC[C@H]1CC[C@H](CNC(=O)c2cc(N3CCC(CC(O)CN4CCOCC4)CC3)nc3ccccc23)CC1 (single isomer, unassigned) [Example 208, (R) or (S) tert-Butyl [(trans-4-{[({2-[4-(2-hydroxy-3-morpholin-4-ylpropyl)piperidin-1-yl]quinolin-4-yl}-carbonyl)amino]methyl}cyclohexyl)methyl]-carbamate]
2040 | 13100 | CN(C)C(=O)COC1CCN(c2cc(C(=O)NC[C@H]3CC[C@H](CNC(=O)OC(C)(C)C)CC3)c3ccccc3n2)CC1 [Example 210, tert-Butyl {[trans-4-({[(2-{4-[2-(dimethylamino)-2-oxoethoxy]piperidin-1-yl}quinolin-4-yl)carbonyl]amino}methyl)cyclohexyl]methyl}carbamate]
